For one assay, the target named is T1, FLT3-ITD (Homo sapiens, UniProt P36888).
T1 sequence (P36888 1-993): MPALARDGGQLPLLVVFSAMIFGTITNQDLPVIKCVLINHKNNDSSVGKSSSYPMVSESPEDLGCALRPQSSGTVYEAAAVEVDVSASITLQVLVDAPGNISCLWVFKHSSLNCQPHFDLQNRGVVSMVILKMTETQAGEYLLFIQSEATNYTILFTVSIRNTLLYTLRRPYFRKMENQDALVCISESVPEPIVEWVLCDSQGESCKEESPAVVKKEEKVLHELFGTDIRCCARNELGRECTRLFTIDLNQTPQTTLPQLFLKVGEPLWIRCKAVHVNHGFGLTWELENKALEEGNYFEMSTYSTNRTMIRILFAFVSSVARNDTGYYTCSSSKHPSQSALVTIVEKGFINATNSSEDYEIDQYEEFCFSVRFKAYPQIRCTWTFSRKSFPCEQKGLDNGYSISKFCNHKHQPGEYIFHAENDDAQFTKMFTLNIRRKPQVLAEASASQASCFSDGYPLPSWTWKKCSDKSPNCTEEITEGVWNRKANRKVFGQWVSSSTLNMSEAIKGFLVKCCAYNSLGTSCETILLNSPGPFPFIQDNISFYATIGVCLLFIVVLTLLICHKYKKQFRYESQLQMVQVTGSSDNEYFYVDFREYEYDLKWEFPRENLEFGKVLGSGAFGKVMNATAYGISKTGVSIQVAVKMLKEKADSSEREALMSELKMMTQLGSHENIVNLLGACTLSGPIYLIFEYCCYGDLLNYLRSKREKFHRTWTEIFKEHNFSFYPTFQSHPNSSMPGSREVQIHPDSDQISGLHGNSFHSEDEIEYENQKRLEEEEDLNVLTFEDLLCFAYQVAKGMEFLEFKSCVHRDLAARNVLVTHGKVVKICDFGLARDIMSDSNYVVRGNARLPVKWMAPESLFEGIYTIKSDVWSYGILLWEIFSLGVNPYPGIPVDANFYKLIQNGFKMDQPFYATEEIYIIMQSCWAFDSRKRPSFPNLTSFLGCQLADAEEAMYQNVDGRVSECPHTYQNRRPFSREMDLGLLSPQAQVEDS
The assay can be described thus: AlphaScreen kinase assay with recombinant enzyme, FLT3-ITD. The format is biochemical. To be noted: 8pt; read-out: FLT3_ITD 8pt: IC50. The procedure, abridged: (§1)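 Recombinant kinase phosphorylates biotinylated poly(Glu4-Tyr) peptide (30 nM final); streptavidin donor and anti-phosphotyrosine PY20 acceptor beads (10 μg/mL final) give a 580 nm proximity signal on 680 nm excitation. IC50 determinations used a final concentration of 10 μM for FLT3-D835Y/FLT3-ITD and 100 μM for c-KIT.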

For another assay, the target named is T2, c-KIT (Homo sapiens, UniProt P10721).
T2 construct: purchased Millipore 14-559K
The assay can be described thus: AlphaScreen kinase assay with recombinant enzyme, c-KIT. Type of assay: biochemical. To be noted: 100ATP, 8pt, GMean. The procedure, abridged:
as §1

pIC50: −log10 of the molar value.

T2 sequence (P10721 26-976): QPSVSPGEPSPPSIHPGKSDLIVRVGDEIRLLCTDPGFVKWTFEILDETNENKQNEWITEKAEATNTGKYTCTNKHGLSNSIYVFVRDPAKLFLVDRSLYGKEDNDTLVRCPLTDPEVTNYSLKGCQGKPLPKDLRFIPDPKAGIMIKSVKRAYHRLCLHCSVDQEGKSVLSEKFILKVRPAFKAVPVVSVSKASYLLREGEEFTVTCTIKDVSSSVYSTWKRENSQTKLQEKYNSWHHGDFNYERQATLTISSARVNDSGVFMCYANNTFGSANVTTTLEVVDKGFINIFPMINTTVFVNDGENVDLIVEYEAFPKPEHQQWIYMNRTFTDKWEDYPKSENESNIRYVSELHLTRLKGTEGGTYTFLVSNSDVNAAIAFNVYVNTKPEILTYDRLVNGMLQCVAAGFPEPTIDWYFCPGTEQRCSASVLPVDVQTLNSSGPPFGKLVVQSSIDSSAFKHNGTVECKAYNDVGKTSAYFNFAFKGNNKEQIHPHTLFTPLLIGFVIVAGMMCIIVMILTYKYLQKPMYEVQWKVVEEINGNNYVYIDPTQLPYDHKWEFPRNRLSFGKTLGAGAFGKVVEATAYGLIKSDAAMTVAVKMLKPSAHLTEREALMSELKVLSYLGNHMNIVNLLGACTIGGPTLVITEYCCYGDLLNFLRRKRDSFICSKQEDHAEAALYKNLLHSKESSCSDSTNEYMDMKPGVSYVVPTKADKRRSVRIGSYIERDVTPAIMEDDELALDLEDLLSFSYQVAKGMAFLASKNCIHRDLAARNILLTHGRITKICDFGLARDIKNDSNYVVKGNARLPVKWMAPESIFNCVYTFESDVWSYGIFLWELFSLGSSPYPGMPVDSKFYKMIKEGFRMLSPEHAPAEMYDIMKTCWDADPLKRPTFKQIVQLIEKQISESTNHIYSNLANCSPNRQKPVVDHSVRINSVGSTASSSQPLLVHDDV

In general, pIC50 refers to the negative decadic logarithm of the IC50, by convention in mol/L. For the compound `CC(=O)NC1CCN(C(=O)c2cccc(-c3cnc4[nH]c(-c5ccc(F)cc5)cc4c3)c2)CC1` [Compound P-0001, N-[1-[3-[2-(4-fluorophenyl)-1H-pyrrolo[2,3-b]pyridin-5-yl]benzoyl]-4-piperidyl]acetamide], the pIC50 is 4.30 to 5.00 on FLT3-ITD and 5.00 to 10.00 at c-KIT.
For `CON(C)C(=O)c1cccc(-c2cnc3[nH]c(-c4ccccc4)cc3c2)c1` [Compound P-0002, N-methoxy-N-methyl-3-(2-phenyl-1H-pyrrolo[2,3-b]pyridin-5-yl)benzamide], in that order: 5.00 to 10.00 and 5.00 to 10.00.
Taken in the same sequence, the figures for `NC1CN(C(=O)c2n[nH]c3ccc(-c4cnc5[nH]c(-c6ccccc6)cc5c4)cc23)C1` [Compound P-0029, (3-aminoazetidin-1-yl)-[5-(2-phenyl-1H-pyrrolo[2,3-b]pyridin-5-yl)-1H-indazol-3-yl]methanone] were 5.00 to 10.00 and 5.00 to 10.00.
Regarding `CNC(=O)C1CCN(C(=O)c2cccc(-c3cnc4[nH]c(-c5ccccc5)cc4c3)n2)CC1` [Compound P-0030, N-methyl-1-[6-(2-phenyl-1H-pyrrolo[2,3-b]pyridin-5-yl)pyridine-2-carbonyl]piperidine-4-carboxamide], the pIC50 at FLT3-ITD and at c-KIT was 5.00 to 10.00 throughout.
Regarding `CCNC(=O)NC1CCN(C(=O)c2cccc(-c3cnc4[nH]c(-c5ccccc5)cc4c3)n2)CC1` [Compound P-0031, 1-ethyl-3-[1-[6-(2-phenyl-1H-pyrrolo[2,3-b]pyridin-5-yl)pyridine-2-carbonyl]-4-piperidyl]urea], the pIC50 at FLT3-ITD and at c-KIT was 5.00 to 10.00 throughout.
Turning to `CS(=O)(=O)NC1CCN(C(=O)c2cccc(-c3cnc4[nH]c(-c5ccccc5)cc4c3)n2)CC1` [Compound P-0032, N-[1-[6-(2-phenyl-1H-pyrrolo[2,3-b]pyridin-5-yl)pyridine-2-carbonyl]-4-piperidyl]methanesulfonamide], the figures for the pIC50 on FLT3-ITD and on c-KIT were 5.00 to 10.00 and 4.30 to 5.00, respectively.
Regarding `Cc1ccc(-c2cnc3[nH]c(-c4ccccc4)cc3c2)nc1C(=O)N1CCC(N)CC1` [Compound P-0033, (4-amino-1-piperidyl)-[3-methyl-6-(2-phenyl-1H-pyrrolo[2,3-b]pyridin-5-yl)-2-pyridyl]methanone], the negative-log IC50 (pIC50) at FLT3-ITD and on c-KIT was 5.00 to 10.00 in each case.
As to `NC1CCN(c2cccc3ccc(-c4cnc5[nH]c(-c6ccccc6)cc5c4)nc23)CC1` [Compound P-0034, 1-[2-(2-phenyl-1H-pyrrolo[2,3-b]pyridin-5-yl)-8-quinolyl]piperidin-4-amine], the pIC50 at FLT3-ITD and at c-KIT was 5.00 to 10.00 in each case.
On to `Cc1ccc(-c2cnc3[nH]c(-c4ccccc4)cc3c2)cc1C(=O)N1CCC(N)CC1` [Compound P-0035, (4-amino-1-piperidyl)-[2-methyl-5-(2-phenyl-1H-pyrrolo[2,3-b]pyridin-5-yl)phenyl]methanone], for which the negative logarithm of the IC50 (pIC50) at FLT3-ITD and on c-KIT was 5.00 to 10.00 throughout.
As to `N[C@H]1CCN(C(=O)c2cccc(-c3cnc4[nH]c(-c5ccccc5)cc4c3)c2)C1` [Compound P-0036, [(3S)-3-aminopyrrolidin-1-yl]-[3-(2-phenyl-1H-pyrrolo[2,3-b]pyridin-5-yl)phenyl]methanone], the pIC50 at FLT3-ITD and on c-KIT was 5.00 to 10.00 in each case.
As for `NC1CCN(C(=O)c2cc(-c3cnc4[nH]c(-c5ccccc5)cc4c3)ccn2)CC1` [Compound P-0038, (4-amino-1-piperidyl)-[4-(2-phenyl-1H-pyrrolo[2,3-b]pyridin-5-yl)-2-pyridyl]methanone], the pIC50 at FLT3-ITD and at c-KIT was 5.00 to 10.00 each time.
For the compound `O=C(NC1CCNCC1)c1n[nH]c2ccc(-c3cnc4[nH]c(-c5ccccc5)cc4c3)cc12` [Compound P-0039, 5-(2-phenyl-1H-pyrrolo[2,3-b]pyridin-5-yl)-N-(4-piperidyl)-1H-indazole-3-carboxamide], the pIC50 at FLT3-ITD and at c-KIT was 5.00 to 10.00 throughout.
With `CNC1CCN(C(=O)c2cccc(-c3cnc4[nH]c(-c5ccccc5)cc4c3)n2)CC1` [Compound P-0041, [4-(methylamino)-1-piperidyl]-[6-(2-phenyl-1H-pyrrolo[2,3-b]pyridin-5-yl)-2-pyridyl]methanone], the pIC50 on FLT3-ITD and at c-KIT was 5.00 to 10.00 in each case.
For the compound `NC1CCN(C(=O)c2c[nH]c3ccc(-c4cnc5[nH]c(-c6ccccc6)cc5c4)cc23)CC1` [Compound P-0042, (4-amino-1-piperidyl)-[5-(2-phenyl-1H-pyrrolo[2,3-b]pyridin-5-yl)-1H-indol-3-yl]methanone], the negative logarithm of the IC50 (pIC50) at FLT3-ITD and at c-KIT was 5.00 to 10.00 in each case.
Turning to `O=C(c1cccc(-c2cnc3[nH]c(-c4ccccc4)cc3c2)n1)C1CCNCC1` [Compound P-0043, [6-(2-phenyl-1H-pyrrolo[2,3-b]pyridin-5-yl)-2-pyridyl]-(4-piperidyl)methanone], the pIC50 on FLT3-ITD and on c-KIT was 5.00 to 10.00 each time.
Take `CNC1CCN(C(=O)c2n[nH]c3ccc(-c4cnc5[nH]c(-c6ccccc6)cc5c4)cc23)CC1` [Compound P-0044, [4-(methylamino)-1-piperidyl]-[5-(2-phenyl-1H-pyrrolo[2,3-b]pyridin-5-yl)-1H-indazol-3-yl]methanone]: the negative-log IC50 (pIC50) on FLT3-ITD and on c-KIT was 5.00 to 10.00 throughout.
Turning to `O=C(NC1CCNC1)c1cccc(-c2cnc3[nH]c(-c4ccccc4)cc3c2)n1` (stereo not shown) [Compound P-0045, 6-(2-phenyl-1H-pyrrolo[2,3-b]pyridin-5-yl)-N-pyrrolidin-3-yl-pyridine-2-carboxamide], the pIC50 at FLT3-ITD and at c-KIT was 5.00 to 10.00 in each case.
Take `N[C@H]1CCN(C(=O)c2cc(-c3cnc4[nH]c(-c5ccccc5)cc4c3)ccn2)C1` [Compound P-0046, [(3S)-3-aminopyrrolidin-1-yl]-[4-(2-phenyl-1H-pyrrolo[2,3-b]pyridin-5-yl)-2-pyridyl]methanone]: the negative-log IC50 (pIC50) on FLT3-ITD and at c-KIT was 5.00 to 10.00 in each case.
For the compound `NC1CCC(C(=O)N2Cc3c(cccc3-c3cnc4[nH]c(-c5ccccc5)cc4c3)C2=O)C1` (stereo not shown) [Compound P-0047, 2-(3-aminocyclopentanecarbonyl)-4-(2-phenyl-1H-pyrrolo[2,3-b]pyridin-5-yl)isoindolin-1-one], the pIC50 at FLT3-ITD and on c-KIT was 5.00 to 10.00 throughout.
As for `N[C@H]1CCN(C(=O)c2csc(-c3cnc4[nH]c(-c5ccccc5)cc4c3)n2)C1` [Compound P-0048, [(3S)-3-aminopyrrolidin-1-yl]-[2-(2-phenyl-1H-pyrrolo[2,3-b]pyridin-5-yl)thiazol-4-yl]methanone], the pIC50 on FLT3-ITD is 5.00 to 10.00.
Regarding `c1ccc(-c2cc3cc(-c4ccc5[nH]nc(NC6CNC6)c5c4)cnc3[nH]2)cc1` [Compound P-0053, N-(azetidin-3-yl)-5-(2-phenyl-1H-pyrrolo[2,3-b]pyridin-5-yl)-1H-indazol-3-amine], the negative logarithm of the IC50 (pIC50) at FLT3-ITD and on c-KIT was 5.00 to 10.00 in each case.
As to `CN(C(=O)c1cccc(-c2cnc3[nH]c(-c4ccccc4)cc3c2)n1)C1CCNC1` (stereo not shown) [Compound P-0076, N-methyl-6-(2-phenyl-1H-pyrrolo[2,3-b]pyridin-5-yl)-N-pyrrolidin-3-yl-pyridine-2-carboxamide], the pIC50 at FLT3-ITD is 5.00 to 10.00.
Take `CNC1CCCN(C(=O)c2cccc(-c3cnc4[nH]c(-c5ccccc5)cc4c3)n2)C1` (stereo not shown) [Compound P-0080, [3-(methylamino)-1-piperidyl]-[6-(2-phenyl-1H-pyrrolo[2,3-b]pyridin-5-yl)-2-pyridyl]methanone]: the pIC50 on FLT3-ITD was 5.00 to 10.00.
For the compound `CC1(N)CCN(C(=O)c2cccc(-c3cnc4[nH]c(-c5ccccc5)cc4c3)n2)CC1` [Compound P-0081, (4-amino-4-methyl-1-piperidyl)-[6-(2-phenyl-1H-pyrrolo[2,3-b]pyridin-5-yl)-2-pyridyl]methanone], the pIC50 on FLT3-ITD was 5.00 to 10.00.
With `CC1(N)CCCN(C(=O)c2cccc(-c3cnc4[nH]c(-c5ccccc5)cc4c3)n2)C1` (stereo not shown) [Compound P-0082, (3-amino-3-methyl-1-piperidyl)-[6-(2-phenyl-1H-pyrrolo[2,3-b]pyridin-5-yl)-2-pyridyl]methanone], the pIC50 at FLT3-ITD is 5.00 to 10.00.
Turning to `N[C@@H]1CN(C(=O)c2cccc(-c3cnc4[nH]c(-c5ccccc5)cc4c3)n2)CC12CC2` [Compound P-0083, [(7S)-7-amino-5-azaspiro[2.4]heptan-5-yl]-[6-(2-phenyl-1H-pyrrolo[2,3-b]pyridin-5-yl)-2-pyridyl]methanone], the negative-log IC50 (pIC50) on FLT3-ITD was 5.00 to 10.00.

The values are drawn from patent publication US9938273B2 (Plexxikon Inc., priority 2015, dated 2018).
